Reference: patent US20230278972A1, “SUBSTITUTED HALOALKYL SULFONANILIDE HERBICIDES” (FMC Corporation, priority 2020, published 2023)

Legend:
Format in all cases: in vivo
[1] = system: Foxtail, Giant (giant foxtail, Setaria faberi); assay: Test A postemergence, Foxtail, Giant; conditions: Postemergence, 0 to 100 scale (0 no effect, 100 complete control)
Source text: (§1) Seeds of plant species selected from barnyardgrass (Echinochloa crus-galli), kochia (Bassia scoparia), ragweed (common ragweed, Ambrosia artemisiifolia), Ryegrass, Italian (Italian ryegrass, Lolium multiflorum), Foxtail, Giant (giant foxtail, Setaria faberi), and pigweed (Amaranthus retroflexus) were planted into a blend of loam soil and sand and treated preemergence with a directed soil spray using test chemicals formulated in a non-phytotoxic solvent mixture which included a surfactant. At the same time, plants selected from these weed species and also wheat (Triticum aestivum), corn (Zea mays), blackgrass (Alopecurus myosuroides), and galium (catchweed bedstraw, Galium aparine) were planted in pots containing the same blend of loam soil and sand and treated with postemergence applications of test chemicals formulated in the same manner. Plants ranged in height from 2 to 10 cm and were in the one- to two-leaf stage for the postemergence treatment. […] A dash (-) response means no test result.

[2] = system: barnyardgrass (Echinochloa crus-galli); assay: Test A preemergence, barnyardgrass; conditions: Preemergence; for Plant response rating, Barnyardgrass: 125 g ai/ha, visual injury, 0 to 100 scale (0 no effect, 100 complete control), approx. 10 days; for Barnyardgrass plant response rating: 500 g ai/ha, visual injury on 0 to 100 scale (0 no effect, 100 complete control), approximately 10 days
Source text: as §1

[3] = system: Ryegrass, Italian (Italian ryegrass, Lolium multiflorum); assay: Test A postemergence, Ryegrass, Italian; conditions: Postemergence, 0 to 100 scale (0 no effect, 100 complete control)
Source text: as §1

[4] = system: blackgrass (Alopecurus myosuroides); assay: Test A postemergence, blackgrass; conditions: Postemergence, 0 to 100 scale (0 no effect, 100 complete control)
Source text: as §1

[5] = system: Foxtail, Giant (giant foxtail, Setaria faberi); assay: Test A preemergence, Foxtail, Giant; conditions: Preemergence; for Plant response rating, Foxtail, Giant: 125 g ai/ha, visual injury, 0 to 100 scale (0 no effect, 100 complete control), approx. 10 days; for Foxtail, Giant plant response rating: 500 g ai/ha, visual injury on 0 to 100 scale (0 no effect, 100 complete control), approximately 10 days
Source text: as §1

[6] = system: Ryegrass, Italian (Italian ryegrass, Lolium multiflorum); assay: Test A preemergence, Ryegrass, Italian; conditions: Preemergence; for Plant response rating, Ryegrass, Italian: 125 g ai/ha, visual injury, 0 to 100 scale (0 no effect, 100 complete control), approx. 10 days; for Ryegrass, Italian plant response rating: 500 g ai/ha, visual injury on 0 to 100 scale (0 no effect, 100 complete control), approximately 10 days
Source text: as §1

kochia (Bassia scoparia) [7] = assay: Test A postemergence, kochia; conditions: Postemergence, 0 to 100 scale (0 no effect, 100 complete control)
Source text: as §1

kochia (Bassia scoparia) [8] = assay: Test A preemergence, kochia; conditions: Preemergence; for Plant response rating, Kochia: 125 g ai/ha, visual injury, 0 to 100 scale (0 no effect, 100 complete control), approx. 10 days; for Kochia plant response rating: 500 g ai/ha, visual injury on 0 to 100 scale (0 no effect, 100 complete control), approximately 10 days
Source text: as §1

[9] = system: pigweed (Amaranthus retroflexus); assay: Test A postemergence, pigweed; conditions: Postemergence, 0 to 100 scale (0 no effect, 100 complete control)
Source text: as §1

corn (Zea mays) = assay: Test A postemergence, corn; conditions: Postemergence, 0 to 100 scale (0 no effect, 100 complete control)
Source text: as §1

[10] = system: galium (catchweed bedstraw, Galium aparine); assay: Test A postemergence, galium; conditions: Postemergence, 0 to 100 scale (0 no effect, 100 complete control)
Source text: as §1

[11] = system: ragweed (common ragweed, Ambrosia artemisiifolia); assay: Test A postemergence, ragweed; conditions: Postemergence, 0 to 100 scale (0 no effect, 100 complete control)
Source text: as §1

[12] = system: barnyardgrass (Echinochloa crus-galli); assay: Test A postemergence, barnyardgrass; conditions: Postemergence, 0 to 100 scale (0 no effect, 100 complete control)
Source text: as §1

[13] = system: ragweed (common ragweed, Ambrosia artemisiifolia); assay: Test A preemergence, ragweed; conditions: Preemergence; for Plant response rating, Ragweed: 125 g ai/ha, visual injury, 0 to 100 scale (0 no effect, 100 complete control), approx. 10 days; for Ragweed plant response rating: 500 g ai/ha, visual injury on 0 to 100 scale (0 no effect, 100 complete control), approximately 10 days
Source text: as §1

[14] = system: wheat (Triticum aestivum); assay: Test A postemergence, wheat; conditions: Postemergence, 0 to 100 scale (0 no effect, 100 complete control)
Source text: as §1

[15] = 500 g ai/ha, visual injury approx. 10 days

Row | SMILES | Plant response rating, Foxtail, Giant ([1]; 125 g ai/ha) | Plant response rating, Foxtail, Giant [1, 15] | Plant response rating, Barnyardgrass [2] | Barnyardgrass plant response rating [2] | Plant response rating, Ryegrass, Italian ([3]; 125 g ai/ha) | Plant response rating, Ryegrass, Italian [3, 15] | Plant response rating, Blackgrass ([4]; 125 g ai/ha) | Plant response rating, Blackgrass [4, 15] | Plant response rating, Foxtail, Giant [5] | Foxtail, Giant plant response rating [5] | Plant response rating, Ryegrass, Italian [6] | Ryegrass, Italian plant response rating [6] | Plant response rating, Kochia (kochia (Bassia scoparia) [7]; 125 g ai/ha) | Plant response rating, Kochia (kochia (Bassia scoparia) [7]; [15]) | Plant response rating, Kochia (kochia (Bassia scoparia) [8]) | Kochia plant response rating (kochia (Bassia scoparia) [8]) | Plant response rating, Pigweed ([9]; 125 g ai/ha) | Plant response rating, Pigweed [9, 15] | Plant response rating, Corn (corn (Zea mays); 125 g ai/ha) | Plant response rating, Corn (corn (Zea mays); [15]) | other results
1 | Cc1cc(Cl)c(NS(=O)(=O)C(F)(F)F)cc1C(=O)N1CCOCC1C (stereo not drawn) [Compound 245] | 50 | 90 | 90 | 100 | 70 | 80 | 40 | 60 | 100 | 100 | 80 | 100 | 40 | 60 | 80 | 80 | 80 | 90 | 20 | 60 | Plant response rating, Galium ([10]; 125 g ai/ha): 90; Plant response rating, Galium [10, 15]: 90; Plant response rating, Ragweed ([11]; 125 g ai/ha): 90; Plant response rating, Ragweed [11, 15]: 90; Plant response rating, Barnyardgrass ([12]; 125 g ai/ha): 90; Plant response rating, Barnyardgrass [12, 15]: 90; Plant response rating, Ragweed [13]: 90; Ragweed plant response rating [13]: 90; Plant response rating, Wheat ([14]; 125 g ai/ha): 60; Plant response rating, Wheat [14, 15]: 60
2 | CC(=O)N(c1cc(N2CCC3(CCCCC3)C2=O)c(C)cc1C)S(=O)(=O)C(F)(F)F [Compound 265] | 0 | 20 | 90 | 100 | 20 | 70 | 30 | 20 | 100 | 100 | 90 | 100 | 40 | 50 | 90 | 90 | 60 | 90 | 20 | 60 | Plant response rating, Galium ([10]; 125 g ai/ha): 90; Plant response rating, Galium [10, 15]: 90; Plant response rating, Ragweed ([11]; 125 g ai/ha): 60; Plant response rating, Ragweed [11, 15]: 80; Plant response rating, Barnyardgrass ([12]; 125 g ai/ha): 60; Plant response rating, Barnyardgrass [12, 15]: 80; Plant response rating, Ragweed [13]: 90; Ragweed plant response rating [13]: 90; Plant response rating, Wheat ([14]; 125 g ai/ha): 30; Plant response rating, Wheat [14, 15]: 60
3 | COC(=O)N(c1cc(N2CCC3(CCCCC3)C2=O)c(C)cc1C)S(=O)(=O)C(F)(F)F [Compound 266] | 0 | 0 | 0 | 40 | 0 | 0 | 30 | 0 | 0 | 20 | 0 | 0 | 0 | 10 | 0 | 0 | 0 | 0 | 0 | 0 | Plant response rating, Galium ([10]; 125 g ai/ha): 30; Plant response rating, Galium [10, 15]: 90; Plant response rating, Ragweed ([11]; 125 g ai/ha): 0; Plant response rating, Ragweed [11, 15]: 10; Plant response rating, Barnyardgrass ([12]; 125 g ai/ha): 0; Plant response rating, Barnyardgrass [12, 15]: 20; Plant response rating, Ragweed [13]: 0; Ragweed plant response rating [13]: 0; Plant response rating, Wheat ([14]; 125 g ai/ha): 0; Plant response rating, Wheat [14, 15]: 0
4 | Cc1cc(C)c(N(S(=O)(=O)C(F)(F)F)S(=O)(=O)C(F)(F)F)cc1N1CC2(CCCCC2)OC1=O [Compound 269] | 0 | 0 | 100 | 100 | 0 | 20 | 20 | 20 | 100 | 100 | 80 | 100 | 30 | 50 | 70 | 100 | 30 | 70 | 0 | 10 | Plant response rating, Galium ([10]; 125 g ai/ha): 70; Plant response rating, Galium [10, 15]: 90; Plant response rating, Ragweed ([11]; 125 g ai/ha): 40; Plant response rating, Ragweed [11, 15]: 90; Plant response rating, Barnyardgrass ([12]; 125 g ai/ha): 0; Plant response rating, Barnyardgrass [12, 15]: 20; Plant response rating, Ragweed [13]: 80; Ragweed plant response rating [13]: 90; Plant response rating, Wheat ([14]; 125 g ai/ha): 0; Plant response rating, Wheat [14, 15]: 20
